Measured values: ChEMBL document CHEMBL1201862, “PubChem BioAssay data set” (2004)
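These data come from cells grown in 96-well plates and exposed to compound for 48 hours at five concentrations. GI50 marks 50% less growth.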 The source made the active and inactive calls. Rule as the data show it: active = GI50 up to about 1.1 µM and inactive = higher.

Experiments:
Experiment in all cases: growth of human tumour cells (NCI), 48 h
HL-60 = test system: HL-60
PC-3 = test system: PC-3
K562 = test system: K562
DU-145 = test system: DU-145
SF-295 = test system: SF-295
SK-OV-3 = test system: SK-OV-3
SNB-19 = test system: SNB-19
NCI-H522 = test system: NCI-H522
SF-268 = test system: SF-268
UACC-62 = test system: UACC-62
SK-MEL-28 = test system: SK-MEL-28
T47D = test system: T47D
MDA-N = test system: MDA-N
A549 = test system: A549
NCI-H226 = test system: NCI-H226
KM12 = test system: KM12
786-0 = test system: 786-0
MCF7 = test system: MCF7
OVCAR-4 = test system: OVCAR-4

| SMILES | GI50 (HL-60) | GI50 (PC-3) | GI50 (K562) | GI50 (DU-145) | GI50 (SF-295) | GI50 (SK-OV-3) | GI50 (SNB-19) | GI50 (NCI-H522) | GI50 (SF-268) | GI50 (UACC-62) | GI50 (SK-MEL-28) | GI50 (T47D) | GI50 (MDA-N) | GI50 (A549) | GI50 (NCI-H226) | GI50 (KM12) | GI50 (786-0) | GI50 (MCF7) | GI50 (OVCAR-4) |
| --- | --- | --- | --- | --- | --- | --- | --- | --- | --- | --- | --- | --- | --- | --- | --- | --- | --- | --- | --- |
| Nc1nc2c(c(=O)[nH]1)N=C(COP(=O)(O)OP(=O)(O)O)CN2 | > 100 µM (inactive) | > 100 µM (inactive) | > 100 µM (inactive) | > 100 µM (inactive) | > 100 µM (inactive) | > 100 µM (inactive) | > 100 µM (inactive) | > 100 µM (inactive) | > 100 µM (inactive) | > 100 µM (inactive) | > 100 µM (inactive) | > 100 µM (inactive) | > 100 µM (inactive) | > 100 µM (inactive) | > 100 µM (inactive) | > 100 µM (inactive) | > 100 µM (inactive) | > 100 µM (inactive) |  |
| CCON=C1C(C)(C)C(C)(C)C(C)(C)C1(C)C | > 100 µM (inactive) | > 100 µM (inactive) | > 100 µM (inactive) | > 100 µM (inactive) | > 100 µM (inactive) | > 100 µM (inactive) | > 100 µM (inactive) | > 100 µM (inactive) | > 100 µM (inactive) | > 100 µM (inactive) | > 100 µM (inactive) | > 100 µM (inactive) | > 100 µM (inactive) | > 100 µM (inactive) | > 100 µM (inactive) | > 100 µM (inactive) | > 100 µM (inactive) | > 100 µM (inactive) | > 100 µM (inactive) |
| CNC(=O)C(C)NC(=O)C(Cc1ccccc1)NC(=O)c1ccccc1 (stereo not given) | > 100 µM (inactive) | > 100 µM (inactive) | > 100 µM (inactive) | > 100 µM (inactive) | > 100 µM (inactive) | > 100 µM (inactive) | > 100 µM (inactive) | > 100 µM (inactive) | > 100 µM (inactive) | > 100 µM (inactive) | > 100 µM (inactive) | > 100 µM (inactive) | > 100 µM (inactive) | > 100 µM (inactive) | > 100 µM (inactive) | > 100 µM (inactive) | > 100 µM (inactive) | > 100 µM (inactive) | > 100 µM (inactive) |
| CC1(C2(C)OC(=O)c3ccccc32)OC(=O)c2ccccc21 (stereo not given) | > 100 µM (inactive) | > 100 µM (inactive) |  | > 100 µM (inactive) | > 100 µM (inactive) | > 100 µM (inactive) | > 100 µM (inactive) | 35.9 µM (inactive) | > 100 µM (inactive) | > 100 µM (inactive) | > 100 µM (inactive) | > 100 µM (inactive) | > 100 µM (inactive) | > 100 µM (inactive) | > 100 µM (inactive) | > 100 µM (inactive) | > 100 µM (inactive) | > 100 µM (inactive) | > 100 µM (inactive) |
| CC(C)(Cl)C(Br)CC/C(=C/CBr)CBr.CC(C)(Cl)C(Br)CC/C(=C\CBr)CBr (stereo not given) | 0.757 µM (active) | 7.45 µM (inactive) | 1.71 µM (inactive) | 8.05 µM (inactive) | 3.71 µM (inactive) | 15 µM (inactive) | 4.12 µM (inactive) | 1.68 µM (inactive) | 2.14 µM (inactive) | 5.01 µM (inactive) | 3.2 µM (inactive) | 4.23 µM (inactive) | 2.62 µM (inactive) | 12.5 µM (inactive) | 24.6 µM (inactive) | 2.36 µM (inactive) | 1.59 µM (inactive) | 2.84 µM (inactive) | 2.25 µM (inactive) |
| O=S(=O)(c1ccc(-c2nnc(-c3ccc(F)cc3)o2)cc1)c1ccc(-c2nnc(-c3ccc(F)cc3)o2)cc1 | > 100 µM (inactive) | > 100 µM (inactive) | > 100 µM (inactive) | > 100 µM (inactive) | 55.3 µM (inactive) | 30.4 µM (inactive) | 34.6 µM (inactive) | > 100 µM (inactive) | > 100 µM (inactive) | > 100 µM (inactive) |  | > 100 µM (inactive) | > 100 µM (inactive) | > 100 µM (inactive) | 61.5 µM (inactive) | > 100 µM (inactive) | 26.8 µM (inactive) | > 100 µM (inactive) | > 100 µM (inactive) |
| Cn1c2ccccc2c2cc(N3CCCC3)c3c(c21)C(=O)N(c1ccccc1)C3=O | > 100 µM (inactive) | > 100 µM (inactive) | > 100 µM (inactive) | > 100 µM (inactive) | > 100 µM (inactive) | 58.9 µM (inactive) | > 100 µM (inactive) | > 100 µM (inactive) | 88.1 µM (inactive) | 56.8 µM (inactive) | > 100 µM (inactive) | 62.1 µM (inactive) | > 100 µM (inactive) | > 100 µM (inactive) | 47 µM (inactive) | > 100 µM (inactive) | 33.8 µM (inactive) | 24.3 µM (inactive) | 38.9 µM (inactive) |
| CN(Cc1cnc2nc(N)nc(N)c2n1)c1ccc(C(=O)NCCS(=O)(=O)O)cc1 | > 100 µM (inactive) | > 100 µM (inactive) | > 100 µM (inactive) | > 100 µM (inactive) | > 100 µM (inactive) | > 100 µM (inactive) | > 100 µM (inactive) | > 100 µM (inactive) | > 100 µM (inactive) | > 100 µM (inactive) | > 100 µM (inactive) | > 100 µM (inactive) | > 100 µM (inactive) | > 100 µM (inactive) | > 100 µM (inactive) | > 100 µM (inactive) | > 100 µM (inactive) | > 100 µM (inactive) | > 100 µM (inactive) |
| NCC1OC(OC2C(N)CC(N)C(O)C2OC2OC(CO)C(O)C2O)C(N)C(O)C1O (stereo not given) | > 100 µM (inactive) | > 50 µM (inactive) | > 100 µM (inactive) | > 100 µM (inactive) | > 100 µM (inactive) | > 50 µM (inactive) | > 50 µM (inactive) | > 100 µM (inactive) | > 100 µM (inactive) | > 100 µM (inactive) | > 100 µM (inactive) | > 50 µM (inactive) | > 50 µM (inactive) | > 100 µM (inactive) | > 100 µM (inactive) | > 50 µM (inactive) | > 50 µM (inactive) | > 100 µM (inactive) | > 100 µM (inactive) |
| C[N+](C)(CCNc1ccc(NCC[N+](C)(C)Cc2ccc([N+](=O)[O-])cc2)c2c1C(=O)c1ccccc1C2=O)Cc1ccc([N+](=O)[O-])cc1 | > 100 µM (inactive) | > 100 µM (inactive) | 70.3 µM (inactive) | > 100 µM (inactive) | > 100 µM (inactive) | > 100 µM (inactive) | > 100 µM (inactive) | > 100 µM (inactive) | > 100 µM (inactive) | > 100 µM (inactive) |  | > 100 µM (inactive) | > 100 µM (inactive) | > 100 µM (inactive) | > 100 µM (inactive) | > 100 µM (inactive) | > 100 µM (inactive) | > 100 µM (inactive) | > 100 µM (inactive) |
| Cn1ncc2c(Cl)ncnc21 | > 100 µM (inactive) | > 100 µM (inactive) | > 100 µM (inactive) | > 100 µM (inactive) | > 100 µM (inactive) | > 100 µM (inactive) | > 100 µM (inactive) | > 100 µM (inactive) | > 100 µM (inactive) | > 100 µM (inactive) | > 100 µM (inactive) | > 100 µM (inactive) | > 100 µM (inactive) | > 100 µM (inactive) | > 100 µM (inactive) | > 100 µM (inactive) | > 100 µM (inactive) | > 100 µM (inactive) | > 100 µM (inactive) |
